Assays:
DMD mutant hPSC-CMs = test: Primary drug screen: intracellular ATP (CellTiter Glo) viability after hypotonic stress; conditions: 18 hours compound incubation, then 12.5% normal osmolarity for 30 minutes, relative to DMSO control wells, concentration not stated (10^-8 to 10^-5 M tested)
[1] = system: mature DMD mutant hPSC-CMs; test: nanoMEA beat rate variability (Mean ΔBI), mature diseased cells; assay type: cell-based, human
Method: Cells were exposed to various concentrations of nitrendipine or sildenafil citrate for seven days and measured their beat rate variability. […] Briefly, the ion permeable polymer Nafion (Sigma-Aldrich) was patterned onto commercial multi-well MEA plates (Axion Biosystems) via solvent-mediated capillary force lithography. Prior to cell seeding, control flat or nanoMEA Nafion surfaces were sterilized with UV-C light and then incubated for 6 hours at 37° C. with 5 μg/cm^2 human fibronectin (Life Technologies). hPSC-CMs were plated in droplet fashion at 25,000 cells per well of the MEA plate. Electrophysiological analysis of spontaneously beating cardiomyocytes was collected for 2 minutes using the AxIS software (Axion Biosystems). After raw data collection, the signal was filtered using a Butterworth band-pass filter and a 90 μV spike detection threshold. Field potential duration was automatically determined using a polynomial fit T-wave detected algorithm.

hPSC-CMs = test: Immunofluorescent imaging, morphological and sarcomere analysis; assay type: cell-based, human; conditions: for cell area compared to Control: single maturation cue on flat surface, 3 weeks
Text: For these studies, and all subsequent functional assays, the full ComboMat platform (Let7i+NP+T3) was compared to a viral vector Control (EV+Flat+No T3) and each maturation cue in isolation: NP (EV+NP+No T3), T3 (EV+Flat+T3), and Let7i (Let7i+Flat+No T3). […] Sarcomeres developed with a higher degree of directionality and order on NPs, resulting in more sarcomeres in register with one another (FIG. 2B).
[…] Samples were then permeabilized with 0.1% Triton X-100 (Sigma-Aldrich) in PBS and blocked with 5% goat serum. Cells were then incubated with mouse anti-α-actinin monoclonal antibody (1:1000, Sigma-Aldrich) in 1% goat serum overnight at 4° C. After washing with PBS, the samples were stained with Alexa-594 conjugated goat-anti-mouse secondary antibody (1:200, Invitrogen) as well as Alexafluo 488 labeled Phalloidin (1:200, Invitrogen). Nuclei counterstaining was performed with Vectashield containing DAPI (Vector Labs). A Nikon AIR confocal microscope with a Nikon CFI Plan Apo VC 60× water immersion objective was used to capture detailed immunofluorescent images for sarcomere analysis while a 20× air objective was used to obtain low-powered images of cells for measuring cell binucleation percentage. Cells from both objective powers were used to measure cell size. For morphological and sarcomere analysis, hPSC-CMs were plated at 10,000 cells/cm^2. […]
Immunofluorescent images were quantified for sarcomere alignment, pattern strength, and sarcomere length using a scanning gradient/Fourier transform script in MATLAB (Mathworks). Each image was broken into several small segments which were individually analyzed. Using a directional derivative, the image gradient for each segment was calculated to determine the local alignment of sarcomeres. The pattern strength was then determined by calculating the maximum peaks of one-dimensional Fourier transforms in the direction of the gradient. The lengths of sarcomeres were calculated by measuring the intensity profiles of the sarcomeres along this same gradient direction. […]

[2] = system: cells exposed to Control conditions or Normal hPSC-CMs exposed to the ComboMat platform; test: nanoMEA beat rate variability, immature or healthy cells; assay type: cell-based, human; conditions: seven days
Method: Cells were exposed to various concentrations of nitrendipine or sildenafil citrate for seven days and measured their beat rate variability. […] Briefly, the ion permeable polymer Nafion (Sigma-Aldrich) was patterned onto commercial multi-well MEA plates (Axion Biosystems) via solvent-mediated capillary force lithography. Prior to cell seeding, control flat or nanoMEA Nafion surfaces were sterilized with UV-C light and then incubated for 6 hours at 37° C. with 5 μg/cm^2 human fibronectin (Life Technologies). hPSC-CMs were plated in droplet fashion at 25,000 cells per well of the MEA plate. Electrophysiological analysis of spontaneously beating cardiomyocytes was collected for 2 minutes using the AxIS software (Axion Biosystems). After raw data collection, the signal was filtered using a Butterworth band-pass filter and a 90 μV spike detection threshold. Field potential duration was automatically determined using a polynomial fit T-wave detected algorithm. Beat interval analysis on 30 consecutive beats was performed as previously published^26 (see Table 3).

DMD patients = conditions: cited from earlier work
mdx mouse = conditions: cited from earlier work

Compound: CN1CCc2c(c3ccccc3n2Cc2ccccc2)C1.CN1CCc2c(c3ccccc3n2Cc2ccccc2)C1.O=S(=O)(O)c1cccc2c(S(=O)(=O)O)cccc12 [MEBHYDROLIN NAPHTHALENESULFONATE]
- Average of % Viability (DMD mutant hPSC-CMs): 172.81 ± 39.86%

Compound: CCOC(=O)C1=C(C)NC(C)=C(C(=O)OC)C1c1cccc([N+](=O)[O-])c1 (centres unmarked) [NITRENDIPINE]
- effect on spontaneous beating ([1]; doses higher than 1 μM, seven days): ceased spontaneous beating
- time for benefits to wash out after removal from cell culture medium ([1]; mature DMD mutant hPSC-CMs, Mean ΔBI after washout): ≤ 48 h
- beat rate variability level restored ([1]; mature DMD mutant hPSC-CMs, doses up to 1 μM, seven days): < 50 ms

Compound: N[C@@H](Cc1cc(I)c(Oc2ccc(O)c(I)c2)c(I)c1)C(=O)O [T3, Triiodothyronine]
- impact of long-term exposure on sarcomere development and beat rate variability (hPSC-CMs; long-term T3 exposure (7, 14, 21 days), preliminary results): negative impact
- cell area compared to Control (hPSC-CMs): significantly larger

Compound: CCCc1nn(C)c2c(=O)[nH]c(-c3cc(S(=O)(=O)N4CCN(C)CC4)ccc3OCC)nc12 [sildenafil]
- Mean ΔBI (beat rate variability) compared to DMSO carrier control ([1]; mature (ComboMat) DMD mutant hPSC-CMs, seven days exposure, various concentrations): no effect
- impact on beat rate variability [2]: Neither nitrendipine nor sildenafil had a significant impact
- cardiac symptoms in DMD patients (clinical trial, terminated early) (DMD patients): exacerbated cardiac symptoms
- cardiac dysfunction in the mdx mouse (mdx mouse): showed promise in alleviating cardiac dysfunction

Compound: Let7i: Let-7i miRNA (UGAGGUAGUAGUUUGUGCU duplex) overexpressed from a lentiviral vector (listed as Homo sapiens)
- cell area compared to Control (hPSC-CMs): significantly larger

Source: patent US20200224168A1, “COMPOSITIONS AND METHODS FOR ENHANCING MATURATION STATES OF HEALTHY AND DISEASED CARDIOMYOCYTES” (University of Washington, priority 2017, published 2020)
